Source: DBAASP
Values after ≈ are worked out from the molar mass of the structure shown. Each block holds one compound with its values, some of them ahead of it.

Columns and labels:
Test in all cases: ≥ marks a high value that may be exact or a test limit, other limits are often not marked, values filed in µg/mL are converted to µM
Escherichia coli JW0013 = system: Escherichia coli JW0013
[1] = system: Micrococcus luteus ATCC 9341
Bacillus cereus = system: Bacillus cereus
[2] = system: Candida albicans ATCC 2002
[3] = system: Escherichia coli ATCC 25922
Pseudomonas aeruginosa = system: Pseudomonas aeruginosa
Shigella dysenteriae = system: Shigella dysenteriae
[4] = system: Staphylococcus aureus ATCC 2592
Bacillus subtilis = system: Bacillus subtilis
Escherichia coli = system: Escherichia coli
Klebsiella pneumoniae = system: Klebsiella pneumoniae
Micrococcus luteus = system: Micrococcus luteus
Proteus mirabilis = system: Proteus mirabilis
Salmonella typhimurium = system: Salmonella typhimurium
Staphylococcus aureus = system: Staphylococcus aureus
[5] = system: Staphylococcus epidermidis
[6] = system: Bacillus subtilis ATCC 6051
[7] = system: Pseudomonas aeruginosa ATCC 27853
[8] = system: Staphylococcus aureus ATCC 25923
Staphylococcus aureus MR = system: Staphylococcus aureus MR
Bacillus subtilis 168 = system: Bacillus subtilis 168
Escherichia coli B = system: Escherichia coli B
[9] = system: Escherichia coli DH5alpha
[10] = system: Klebsiella pneumoniae ATCC 10031
[11] = system: Salmonella enterica subsp. enterica serovar Typhimurium ATCC 14028

Structure (SMILES): CC(C)C[C@H](NC(=O)[C@H](C)N)C(=O)N1CCC[C@H]1C(=O)N[C@@H](Cc1c[nH]c2ccccc12)C(=O)N[C@@H](CCCCN)C(=O)N[C@@H](Cc1c[nH]c2ccccc12)C(=O)N1CCC[C@H]1C(=O)N[C@@H](Cc1c[nH]c2ccccc12)C(=O)N[C@@H](Cc1c[nH]c2ccccc12)C(=O)N1CCC[C@H]1C(=O)N[C@@H](Cc1c[nH]c2ccccc12)C(=O)N[C@@H](CCCN=C(N)N)C(=O)N[C@@H](CCCN=C(N)N)C(N)=O [ALPWKWPWWPWRR]
MIC [1]: 0.4 µM (≈ 0.746 µg/mL)

Structure (SMILES): CC(C)C[C@H](NC(=O)[C@H](C)NC(=O)[C@H](Cc1c[nH]c2ccccc12)NC(=O)[C@H](CC(C)C)NC(=O)[C@@H](N)Cc1ccccc1)C(=O)N[C@@H](Cc1ccccc1)C(=O)N[C@@H](CCCCN)C(=O)N[C@H](C(=O)N[C@@H](C)C(=O)N[C@@H](CO)C(=O)N[C@@H](CCCCN)C(=O)O)C(C)C [FLWALFKVASK]
MIC (Bacillus subtilis): 9.54 µM (≈ 12.5 µg/mL) | MIC (Escherichia coli): 76.4 µM (≈ 100 µg/mL) | MIC (Klebsiella pneumoniae): 76.4 µM (≈ 100 µg/mL) | MIC (Micrococcus luteus): ≥ 38.2 µM | MIC (Proteus mirabilis): ≥ 153 µM | MIC (Pseudomonas aeruginosa): > 153 µM | MIC (Salmonella typhimurium): ≥ 153 µM | MIC (Shigella dysenteriae): ≥ 153 µM | MIC (Staphylococcus aureus): 9.54 µM (≈ 12.5 µg/mL) | MIC [5]: 19.1 µM (≈ 25 µg/mL)

Structure (SMILES): CC(C)C[C@H](NC(=O)[C@H](C)NC(=O)CNC(=O)[C@H](CC(C)C)NC(=O)[C@@H](N)Cc1ccccc1)C(=O)N[C@@H](Cc1ccccc1)C(=O)N[C@@H](CCCCN)C(=O)N[C@H](C(=O)N[C@@H](C)C(=O)N[C@@H](CO)C(=O)N[C@@H](Cc1c[nH]c2ccccc12)C(=O)O)C(C)C [FLGALFKVASW]
MIC (Bacillus subtilis): ≥ 161 µM | MIC (Escherichia coli): > 161 µM | MIC (Klebsiella pneumoniae): > 161 µM | MIC (Micrococcus luteus): ≥ 161 µM | MIC (Proteus mirabilis): ≥ 161 µM | MIC (Pseudomonas aeruginosa): > 161 µM | MIC (Salmonella typhimurium): ≥ 161 µM | MIC (Shigella dysenteriae): ≥ 161 µM | MIC (Staphylococcus aureus): > 161 µM | MIC [5]: ≥ 161 µM

Structure (SMILES): CC[C@H](C)[C@H](NC(=O)[C@H](C)NC(=O)[C@H](CC(C)C)NC(=O)[C@H](CC(C)C)NC(=O)[C@H](CC(C)C)NC(=O)[C@H](C)N)C(=O)N[C@@H](CCCN=C(N)N)C(=O)N[C@@H](CCCCN)C(=O)N[C@@H](CCCN=C(N)N)C(N)=O [ALLLAIRKR]
MIC (Escherichia coli): 5.7 µM (≈ 5.99 µg/mL) | MIC (Pseudomonas aeruginosa): 3.8 µM (≈ 4 µg/mL) | MIC (Staphylococcus aureus MR): ≥ 38 µM | MIC (Staphylococcus aureus): 3.8 µM (≈ 4 µg/mL)

Structure (SMILES): CC[C@H](C)[C@@H]1NC(=O)[C@H](CCCCN)NC(=O)[C@@H](NC(=O)[C@H](Cc2ccccc2)NC(=O)[C@H](CC(C)C)NC(=O)[C@H](CCCCN)NC(=O)[C@@H]2CCCN2C(=O)[C@H](CC(C)C)NC(=O)[C@H](Cc2ccccc2)NC(=O)[C@H](CC(N)=O)NC(=O)[C@H](C)NC(=O)[C@H](C)NC(=O)[C@H](CC(C)C)NC(=O)[C@H](CO)NC(=O)[C@@H](NC(=O)[C@H](C)NC(=O)[C@H](CC(C)C)NC(=O)[C@@H]2CCCN2C(=O)[C@H](CC(C)C)NC(=O)[C@@H](N)Cc2ccccc2)C(C)C)CSSC[C@@H](C(=O)O)NC(=O)[C@H](CCCCN)NC(=O)[C@H](CCCCN)NC(=O)[C@H]([C@@H](C)O)NC1=O [FLPLAVSLAANFLPKLFCKITKKC]
MIC [2]: 2.81 µM (≈ 7.49 µg/mL) | MIC [3]: 2.44 µM (≈ 6.5 µg/mL) | MIC (Shigella dysenteriae): 0.825 µM (≈ 2.2 µg/mL) | MIC [4]: 2.06 µM (≈ 5.5 µg/mL)

Structure (SMILES): CC(C)C[C@H](NC(=O)CNC(=O)[C@H](C)NC(=O)[C@H](CC(C)C)NC(=O)[C@H](CC(C)C)NC(=O)[C@H](CCCCN)NC(=O)[C@H](CC(C)C)NC(=O)[C@@H](N)Cc1ccccc1)C(=O)N[C@@H](CC(C)C)C(=O)N[C@@H](CCCCN)C(=O)N[C@@H](CC(N)=O)C(=O)N[C@@H](Cc1ccccc1)C(=O)N[C@@H](C)C(=O)O [FLKLLAGLLKNFA]
MIC [9]: ≥ 69.1 µM | MIC [10]: ≥ 34.5 µM | MIC [11]: > 69.1 µM

More lines, now with the values ahead:

MIC (Escherichia coli JW0013): 0.975 µM (≈ 2.4 µg/mL)
Structure (SMILES): CC[C@H](C)[C@H](NC(=O)[C@H](CCCN=C(N)N)NC(=O)[C@H](CCCN=C(N)N)NC(=O)[C@@H]1CCCN1C(=O)[C@@H]1CCCN1C(=O)[C@H](CCCN=C(N)N)NC(=O)[C@@H]1CCCN1C(=O)[C@H](CCCN=C(N)N)NC(=O)[C@@H]1CCCN1C(=O)[C@H](CC(C)C)NC(=O)[C@H](Cc1ccc(O)cc1)NC(=O)[C@H](Cc1cnc[nH]1)NC(=O)[C@H](CCCCN)NC(=O)[C@H](CCCCN)NC(=O)[C@H](CC(=O)O)NC(=O)[C@@H](N)C(C)C)C(=O)N[C@@H](Cc1ccc(O)cc1)C(=O)N[C@@H](CC(N)=O)C(=O)N[C@@H](CCCN=C(N)N)C(N)=O [VDKKHYLPRPRPPRRIYNR]

MIC (Escherichia coli JW0013): 1.36 µM (≈ 3.3 µg/mL)
Structure (SMILES): CC[C@H](C)[C@H](NC(=O)[C@H](CCCN=C(N)N)NC(=O)[C@H](CCCN=C(N)N)NC(=O)[C@@H]1CCCN1C(=O)[C@@H]1CCCN1C(=O)[C@H](CCCN=C(N)N)NC(=O)[C@@H]1CCCN1C(=O)[C@H](CCCN=C(N)N)NC(=O)[C@@H]1CCCN1C(=O)[C@H](CCCCN)NC(=O)[C@H](CCCN=C(N)N)NC(=O)[C@@H]1CCCN1C(=O)[C@H](CCCCN)NC(=O)[C@H](CCCCN)NC(=O)[C@H](CC(=O)O)NC(=O)[C@@H](N)C(C)C)C(=O)N[C@@H](Cc1ccc(O)cc1)C(=O)N[C@@H](CC(N)=O)C(=O)N[C@@H](CCCN=C(N)N)C(N)=O [VDKKPRKPRPRPPRRIYNR]

MIC (Bacillus cereus): 21.3 µM (≈ 49.9 µg/mL) | MIC [2]: ≥ 42.6 µM | MIC [3]: 10.6 µM (≈ 25 µg/mL) | MIC (Pseudomonas aeruginosa): 10.6 µM (≈ 25 µg/mL) | MIC (Shigella dysenteriae): 5.32 µM (≈ 12.5 µg/mL) | MIC [4]: 5.32 µM (≈ 12.5 µg/mL)
Structure (SMILES): CSCC[C@H](NC(=O)[C@H](CO)NC(=O)[C@H](Cc1ccc(O)cc1)NC(=O)[C@H](C)NC(=O)[C@@H](N)CCCCN)C(=O)N1CCC[C@H]1C(=O)N[C@@H](CCCN=C(N)N)C(=O)N[C@H]1CSSC[C@@H](C(=O)N[C@@H](Cc2c[nH]c3ccccc23)C(=O)N[C@@H](CC(C)C)C(N)=O)NC(=O)[C@H](CC(C)C)NC(=O)[C@H](C(C)C)NC(=O)[C@H](C)NC(=O)[C@H](CCCN=C(N)N)NC(=O)[C@H](Cc2ccccc2)NC(=O)[C@H](CC(C)C)NC(=O)[C@H](Cc2ccc(O)cc2)NC(=O)[C@H](CCCCN)NC1=O [KAYSMPRCKYLFRAVLCWL]

MIC (Escherichia coli JW0013): 1.99 µM (≈ 4.8 µg/mL)
Structure (SMILES): CC[C@H](C)[C@H](NC(=O)[C@H](CCCN=C(N)N)NC(=O)[C@H](CCCN=C(N)N)NC(=O)[C@@H]1CCCN1C(=O)[C@@H]1CCCN1C(=O)[C@H](CCCN=C(N)N)NC(=O)[C@@H]1CCCN1C(=O)[C@H](CCCN=C(N)N)NC(=O)[C@@H]1CCCN1C(=O)[C@H](CC(C)C)NC(=O)[C@H](Cc1c[nH]c2ccccc12)NC(=O)[C@@H]1CCCN1C(=O)[C@@H]1CCCN1C(=O)[C@H](CCCCN)NC(=O)[C@H](CC(=O)O)NC(=O)[C@@H](N)C(C)C)C(=O)N[C@@H](Cc1ccc(O)cc1)C(=O)N[C@@H](CC(N)=O)C(=O)N[C@@H](CCCN=C(N)N)C(N)=O [VDKPPWLPRPRPPRRIYNR]

MIC [6]: ≥ 40 µM | MIC [3]: 40 µM (≈ 64 µg/mL) | MIC [7]: 20 µM (≈ 32 µg/mL) | MIC [8]: 160 µM (≈ 256 µg/mL)
Structure (SMILES): CC[C@H](C)[C@H](NC(=O)[C@H](CC(N)=O)NC(=O)[C@H](Cc1ccccc1)NC(=O)[C@H](CC(C)C)NC(=O)CN)C(=O)N[C@H](C(=O)N[C@@H](CCCCN)C(=O)N[C@@H](CCCCN)C(=O)N[C@H](C(=O)N[C@H](C(=O)NCC(=O)N[C@@H](CCCCN)C(=O)N[C@@H](CC(C)C)C(=O)N[C@@H](CCCN=C(N)N)C(=O)O)[C@@H](C)CC)[C@@H](C)O)[C@@H](C)CC [GLFNIIKKTIGKLR]

MIC (Bacillus subtilis 168): 1.7 µM (≈ 2.38 µg/mL) | MIC (Escherichia coli B): 2.3 µM (≈ 3.21 µg/mL) | MIC (Pseudomonas aeruginosa): 28.3 µM (≈ 39.6 µg/mL) | MIC (Staphylococcus aureus): 21.7 µM (≈ 30.3 µg/mL)
Structure (SMILES): CC[C@H](C)[C@H](NC(=O)[C@H](CC(C)C)NC(=O)[C@H](CCCCN)NC(=O)CNC(=O)[C@H](CC(C)C)NC(=O)[C@@H](NC(=O)[C@H](CCCCN)NC(=O)[C@H](CO)NC(=O)[C@H](Cc1c[nH]c2ccccc12)NC(=O)[C@H](CCCCN)NC(=O)CN)[C@@H](C)CC)C(=O)N[C@@H](CCCN=C(N)N)C(N)=O [GKWSKILGKLIR]

MIC [3]: 16 µM (≈ 29.6 µg/mL) | MIC [1]: 0.4 µM (≈ 0.74 µg/mL)
Structure (SMILES): CC[C@H](C)[C@H](N)C(=O)N[C@@H](CC(C)C)C(=O)N1CCC[C@H]1C(=O)N[C@@H](Cc1c[nH]c2ccccc12)C(=O)N[C@@H](CCCCN)C(=O)N[C@@H](Cc1c[nH]c2ccccc12)C(=O)N1CCC[C@H]1C(=O)N[C@@H](Cc1c[nH]c2ccccc12)C(=O)N[C@@H](Cc1c[nH]c2ccccc12)C(=O)N1CCC[C@H]1C(=O)N[C@@H](Cc1c[nH]c2ccccc12)C(=O)N[C@@H](CCCCN)C(=O)N[C@@H](CCCCN)C(N)=O [ILPWKWPWWPWKK]
